Results from patent publication US10752617B2 (GALDERMA RESEARCH & DEVELOPMENT, priority 2014, dated 2020).

biological target: T1, GAL4-RORγ (GAL4 DBD fused to the ROR gamma ligand-binding domain) (Homo sapiens, UniProt P51449); assay: GAL4-RORγ transactivation (luciferase reporter, HG5LN HeLa line); format: cell-based; conditions: HG5LN HeLa cells, 18 hours incubation, luciferase luminescence, read-out: IC50 hRORg
T1 construct: expressed in transfected cells; host or cells: HG5LN (HeLa line with GAL4-responsive luciferase reporter)
T1 sequence (P51449 269-508 limits assumed): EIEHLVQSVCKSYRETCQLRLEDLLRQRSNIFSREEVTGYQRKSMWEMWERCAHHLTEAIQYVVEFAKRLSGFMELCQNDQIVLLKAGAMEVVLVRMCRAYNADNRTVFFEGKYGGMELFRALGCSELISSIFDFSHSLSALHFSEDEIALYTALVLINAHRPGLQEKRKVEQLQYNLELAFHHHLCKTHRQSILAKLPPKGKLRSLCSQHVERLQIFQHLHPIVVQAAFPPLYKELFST
Source text: In the tables described above, the median inhibitory concentrations IC50 for the compounds belonging to formula (I) according to the invention have been given according to the following models:
GAL4-RORγ Transactivation
The RORγ transactivation model was developed from the line HG5LN, which is a HeLa line that stably expresses a luciferase reporter gene controlled by a pentamer of the GAL4 recognition domain of yeast and of a β-globin promoter. The HG5LN line was stably transfected by the DNA-binding domain (DBD) of GAL4 fused to the ROR gamma ligand-binding domain (LBD). Molecules that inhibit the ROR gamma constitutive activity reduce the luciferase expression, thus leading to a reduction in the emitted luminescence.
The cells are seeded in 384-well plates (5000 cells in 45 μL/well of culture medium containing 10% fetal calf serum) and incubated for 4 hours at 37° C., 5% CO2. 5 μL of the test molecules (compounds described in the tables described above) are then added to each well and the plates are incubated for 18 hours at a temperature of 37° C. under 5% of CO2. 20 μL of luciferase substrate (Promega) are added to each well and the luminescence emitted is read by a microplate reader.
The luminescence units (“RLU”) are normalized by positive controls (“POS” containing a saturated concentration of N-(2,2,2-trifluoroethyl)-N-[4-[2,2,2-trifluoro-1-hydroxy-1-(trifluoromethyl)ethyl]phenyl])benzenesulfonamide and negative controls (“NEG” containing DMSO): % inhibition=((RLU−NEG)*100)/(POS−NEG). The IC50 values are calculated from a 4-parameter logistic model using the XLFit software (IDBS).

SMILES	IC50 [nM]
CCc1ccc(N(CC(C)C)S(=O)(=O)c2ccc3c(c2)c(CO)nn3CC2CCOCC2)cc1 [Compound 14, 3-hydroxymethyl-1-(tetrahydropyran-4-ylmethyl)-1H-indazole-5-sulfonic acid (4-ethylphenyl)isobutylamide]	> 1000
CCc1ccc(N(CC2COC2)S(=O)(=O)c2ccc3c(cnn3CC3CCOCC3)c2)cc1 [Compound 16, 1-(tetrahydropyran-4-ylmethyl)-1H-indazole-5-sulfonic acid (4-ethylphenyl)oxetan-3-ylmethylamide]	> 1000
CCc1ccc(N(CC(C)C)S(=O)(=O)c2ccc3c(c2)c(OCC2CCOCC2)nn3CC2CCOCC2)cc1 [Compound 18, 3-(tetrahydropyran-4-ylmethoxy)-1-(tetrahydropyran-4-ylmethyl)-1H-indazole-5-sulfonic acid (4-ethylphenyl)isobutylamide]	> 1000
CCc1ccc(N(CC(C)C)S(=O)(=O)c2ccc3c(cnn3CC3CN(C(C)=O)C3)c2)cc1 [Compound 19]	> 1000
CCc1ccc(N(CC(C)C)S(=O)(=O)c2ccc3c(cnn3CC3CCN(C(C)=O)C3)c2)cc1 (centres unmarked) [Compound 20, 1-((1-acetylpyrrolidin-3-yl)methyl)-N-(4-ethylphenyl)-N-isobutyl-1H-indazole-5-sulfonamide]	> 1000
CCc1ccc(N(CC(C)C)S(=O)(=O)c2ccc3c(cnn3CC3CCOC3)c2)cc1 (centres unmarked) [Compound 21, N-(4-ethylphenyl)-N-isobutyl-1-((tetrahydrofuran-3-yl)methyl)-1H-indazole-5-sulfonamide]	> 1000
CCc1ccc(N(CC(C)C)S(=O)(=O)c2ccc3c(cnn3CC3CCCOC3)c2)cc1 (centres unmarked) [Compound 22, N-(4-ethylphenyl)-N-isobutyl-1-((tetrahydro-2H-pyran-3-yl)methyl)-1H-indazole-5-sulfonamide]	> 1000
CCc1ccc(N(CC(C)C)S(=O)(=O)c2ccc3c(cnn3Cc3ccccc3)c2)cc1 [Compound 23, 1-benzyl-N-(4-ethylphenyl)-N-isobutyl-1H-indazole-5-sulfonamide]	> 1000
COc1cccc(N(CC(C)C)S(=O)(=O)c2ccc3c(cnn3CC3CCOCC3)c2)c1 [Compound 25, 1-(tetrahydropyran-4-ylmethyl)-1H-indazole-5-sulfonic acid (3-methoxyphenyl)isobutylamide]	> 1000
Cc1cccc(N(CC(C)C)S(=O)(=O)c2ccc3c(cnn3CC3CCOCC3)c2)c1 [Compound 26, 1-(tetrahydropyran-4-ylmethyl)-1H-indazole-5-sulfonic acid (3-methylphenyl)isobutylamide]	> 1000
Cc1cc(C)cc(N(CC(C)C)S(=O)(=O)c2ccc3c(cnn3CC3CCOCC3)c2)c1 [Compound 28, 1-(tetrahydropyran-4-ylmethyl)-1H-indazole-5-sulfonic acid (3,5-dimethylphenyl)isobutylamide]	> 1000
CCc1ccc(N(C(C)C)S(=O)(=O)c2ccc3c(cnn3CC3CCOCC3)c2)cc1 [Compound 29, N-(4-ethylphenyl)-N-isopropyl-1-((tetrahydro-2H-pyran-4-yl)methyl)-1H-indazole-5-sulfonamide]	> 1000
CCc1ccc(N(CC2CC2)S(=O)(=O)c2ccc3c(cnn3CC3CCOCC3)c2)cc1 [Compound 31, N-(cyclopropylmethyl)-N-(4-ethylphenyl)-1-((tetrahydro-2H-pyran-4-yl)methyl)-1H-indazole-5-sulfonamide]	> 1000
CCc1ccc(N(CC2CCOC2)S(=O)(=O)c2ccc3c(cnn3CC3CCOCC3)c2)cc1 (centres unmarked) [Compound 33, 1-(tetrahydropyran-4-ylmethyl)-1H-indazole-5-sulfonic acid (4-ethylphenyl)(tetrahydrofuran-3-ylmethyl)amide]	> 1000
CCc1ccc(N(CC(C)C)S(=O)(=O)c2ccc3[nH]nc(N)c3c2)cc1 [Compound 34, 3-amino-1H-indazole-5-sulfonic acid (4-ethylphenyl)isobutylamide]	> 1000
CCc1ccc(N(CCC(C)C)S(=O)(=O)c2ccc3c(cnn3CC3CCOCC3)c2)cc1 [Compound 35, N-(4-ethylphenyl)-N-isopentyl-1-((tetrahydro-2H-pyran-4-yl)methyl)-1H-indazole-5-sulfonamide]	> 1000
CCc1ccc(N(CC(C)C)S(=O)(=O)c2ccc3c(cnn3C3CCOCC3)c2)cc1 [Compound 38, 1-(tetrahydropyran-4-yl)-1H-indazole-5-sulfonic acid (4-ethylphenyl)isobutylamide]	> 1000

Next, values leading:

IC50 [nM]	SMILES
100 to 1000	CCc1ccc(N([C@H](C)CC)S(=O)(=O)c2ccc3c(cnn3CC3CCOCC3)c2)cc1 [Compound 2, 1-(tetrahydropyran-4-ylmethyl)-1H-indazole-5-sulfonic acid ((R)-sec-butyl)(4-ethylphenyl)amide]
> 1000	CCc1ccc(N(C2CC2)S(=O)(=O)c2ccc3c(cnn3CC3CCOCC3)c2)cc1 [Compound 3, 1-(tetrahydropyran-4-ylmethyl)-1H-indazole-5-sulfonic acid cyclopropyl(4-ethylphenyl)amide]
> 1000	CCc1ccc(N(CC(C)C)S(=O)(=O)c2ccc3c(Br)nn(C4CCCCO4)c3c2)cc1 (centres unmarked) [Compound 4, 3-bromo-1-(tetrahydropyran-2-yl)-1H-indazole-6-sulfonic acid (4-ethylphenyl)isobutylamide]
> 1000	CCc1ccc(N(CC2CCOCC2)S(=O)(=O)c2ccc3c(cnn3CC3CCOCC3)c2)cc1 [Compound 5, 1-(tetrahydropyran-4-ylmethyl)-1H-indazole-5-sulfonic acid (4-ethylphenyl)(tetrahydropyran-4-ylmethyl)amide]
100 to 1000	CCc1ccc(N(CC(C)C)S(=O)(=O)c2ccc3c(cnn3Cc3c(C)noc3C)c2)cc1 [Compound 6, 1-((3,5-dimethylisoxazol-4-yl)methyl)-N-(4-ethylphenyl)-N-isobutyl-1H-indazole-5-sulfonamide]
> 1000	CCCN(c1ccc(CC)cc1)S(=O)(=O)c1ccc2c(cnn2CC2CCOCC2)c1 [Compound 8, 1-(tetrahydropyran-4-ylmethyl)-1H-indazole-5-sulfonic acid (4-ethylphenyl)propyl]
> 1000	CCCCN(c1ccc(CC)cc1)S(=O)(=O)c1ccc2c(cnn2CC2CCOCC2)c1 [Compound 9, 1-(tetrahydropyran-4-ylmethyl)-1H-indazole-5-sulfonic acid butyl(4-ethylphenyl)amide]
> 1000	CC(C)CN(c1cc(Cl)ccc1F)S(=O)(=O)c1ccc2c(cnn2CC2CCOCC2)c1 [Compound 10, 1-(tetrahydropyran-4-ylmethyl)-1H-indazole-5-sulfonic acid (5-chloro-2-fluorophenyl)isobutylamide]
100 to 1000	Cc1ccc(C)c(N(CC(C)C)S(=O)(=O)c2ccc3c(cnn3CC3CCOCC3)c2)c1 [Compound 11, 1-(tetrahydropyran-4-ylmethyl)-1H-indazole-5-sulfonic acid (2,5-dimethylphenyl)isobutylamide]
100 to 1000	CCCCc1ccc(N(CC(C)C)S(=O)(=O)c2ccc3c(cnn3CC3CCOCC3)c2)c(C)c1 [Compound 13, 1-(tetrahydropyran-4-ylmethyl)-1H-indazole-5-sulfonic acid (4-butyl-2-methylphenyl)isobutylamide]
100 to 1000	CCc1ccc(N(CC(C)C)S(=O)(=O)c2ccc3c(cnn3C3CCN(C(C)=O)C3)c2)cc1 (centres unmarked) [Compound 17, 1-(1-acetylpyrrolidin-3-yl)-1H-indazole-5-sulfonic acid (4-ethylphenyl)isobutylamide]
100 to 1000	CCc1ccc(N(CC2CCC2)S(=O)(=O)c2ccc3c(cnn3CC3CCOCC3)c2)cc1 [Compound 24, N-(cyclobutylmethyl)-N-(4-ethylphenyl)-1-((tetrahydro-2H-pyran-4-yl)methyl)-1H-indazole-5-sulfonamide]
100 to 1000	Cc1ccc(N(CC(C)C)S(=O)(=O)c2ccc3c(cnn3CC3CCOCC3)c2)c(C)c1 [Compound 27, 1-(tetrahydropyran-4-ylmethyl)-1H-indazole-5-sulfonic acid (2,4-dimethylphenyl)isobutylamide]
100 to 1000	CCc1ccc(N(C(C)CC)S(=O)(=O)c2ccc3c(cnn3CC3CCOCC3)c2)cc1 (centres unmarked) [Compound 30, 1-(tetrahydropyran-4-ylmethyl)-1H-indazole-5-sulfonic acid sec-butyl(4-ethylphenyl)amide]
< 100	CCc1ccc(N(C2CCCC2)S(=O)(=O)c2ccc3c(cnn3CC3CCOCC3)c2)cc1 [Compound 32, 1-(tetrahydropyran-4-ylmethyl)-1H-indazole-5-sulfonic acid cyclopentyl(4-ethylphenyl)amide]
